In patent publication US12053465B2, “KCC2 expression enhancing compounds and uses thereof” (Whitehead Institute for Biomedical Research, priority 2017, dated 2024):
Where a SMILES comes first, the peptide text is derived from it. [ ]: non-standard residue; d: D form. The star is where a group is joined. Sta = CC(C)C[C@H](N)[C@@H](O)CC(=O)O; Isovaleryl = CC(C)CC(=O)*

What was measured:
[1] = test system: KCC2 expression (KCC2-2A-luciferase reporter); experiment: KCC2-2A-luciferase reporter compound screening with RTT KCC2 reporter neurons; type: cell-based, human; settings: MECP2-null RTT human KCC2 reporter neurons; LINCS, SMART, ICCB libraries; Luc/CTG normalized to in-plate DMSO; hit = B score >3
Method: The RTT KCC2-2A-luciferase reporter neurons were treated with the test compounds from the LINCS kinase inhibitor library and IRSF SMART compound library and incubated before being lysed. The cell lysate was divided into two parts to measure luciferase signal (KCC2 translation) and Cell-Titer Glow (CTG, amount of ATP). The luciferase signal was normalized to CTG for each well, and the Luc/CTG ratio was normalized to the in-plate DMSO negative control to calculate fold change ratio.
Additional screens for reporter activation in the MECP2-null RTT human KCC2 reporter neurons (isogenic to the WT reporter cells used above) were performed with the LINCS and SMART libraries as well as the ICCB known bioactive library and identified hits as compounds with B score >3.
The cells were dissociated with Accutase and resuspended in 10 ml neuronal differentiation medium to count cells. The cells were then diluted to the final density of 200,000 to 500,000 cells/ml. Matrigel was added to the cell suspension at a dilution ratio of 1:300 to promote cell adhesion after plating. AraC was added to cell suspension at the concentration of 2 μM to inhibit cell division. The cells were plated into 96-well plates with an automated cell seeding machine using the following protocol: The neuron flask was washed with PBS. The neurons were digested off the plate with Accutase for 30 minutes at 37° C. Next, the dissociated cells were collected and spun down at 750 rpm for 5 minutes. The cell pellet was dissociated by gentle trituration with P1000 pipet and the cells were resuspended with 10 ml of neuronal medium. Then, the cells were filtered through a 40 μm cell strainer (Falcon) to get rid of clumps. The resulting single-cell suspension was counted using a Countess automated cell counter (Invitrogen Countess Automated Cell Counter, Catalog no. C10227). The neurons were resuspended with neuronal medium to 10× of the destination density (100,000 cells to 400,000 cells per ml). The cells were plated with a multichannel pipette, or proceeded to the machine-plating protocol described below:
The day after cell seeding, small molecule compounds from the IRSF (International Rett Syndrome Foundation) library were prepared at a concentration of 1 mM and dispensed into a blank V-bottomed test plates at 2 μl per well. Compound solvent DMSO was included in every plate as control. Using a liquid handling robot, about 80 μl of culture medium were discarded. Neuronal medium in the volume of 200 μl was added to the V-bottom test plate that contained 2 μl of 1 mM compounds, and mixed with compounds by pipetting up-and-down 3 times. The medium that contained the 10 μM compounds was then applied to the neuronal cell culture and incubated for 2 weeks before cell lysis and luciferase assay were performed.
(§1) The cells were dissociated with Accutase, resuspended in 10 ml neuronal differentiation medium to count cells. the final cell seeding density was 20 k-40 k cells per well for 96-well plates, and ˜10 k cells per well for 384-well plates. Matrigel was added to the cell suspension at a dilution ratio of 1:300 to promote cell adhesion after plating. AraC were added to the cell suspension at the concentration of 0.5 μM to inhibit astroglial cell division. The cells were dispensed into 96-well or 384-well plates (Coming) using a BioTek EL406 plate dispenser. […] The neurons were incubated with the compounds at 37° C./5% CO2 for a week before the luciferase assay.
The cells used for luciferase assay were KCC2 reporter neurons differentiated for 4 weeks, and treated with drug in 96-well format for 2 weeks. Cell density was between 20 k-40 k cells per well.
On the day of the luciferase assay, the cells were washed with PBS for two times, and 100 μl of cell lysis buffer was applied to the washed cells. The cell plates were transferred to a rocker to shake for 10 minutes in order to fully lyse the cells.

[2] = test system: KCC2 expression (KCC2-2A-luciferase reporter); experiment: KCC2-2A-luciferase reporter compound screening with wild type KCC2 reporter neurons; type: cell-based; settings: WT human KCC2 reporter neurons; LINCS 0.5 μM, IRSF/SMART and ICCB 10 μM, one week; Luc/CTG normalized to in-plate DMSO; hit = B score >3
Excerpt: In addition, CRISPR/Cas9 genome editing technology was utilized to insert a 2A-luciferase reporter gene directly before the stop codon of the endogenous KCC2 locus in human ES cells, thus creating wild type (WT) cells isogenic to the MECP2-null RTT human KCC2 reporter neurons. KCC2 expression reporter human neurons were differentiated from the gene-targeted ES cells and utilized as the substrate for unbiased compound screening (FIG. 6A; see also FIG. 1A).
Gene-targeted KCC2 reporter cells were used in a HTS pipeline to screen for small molecule compounds that enhance KCC2 gene expression (FIG. 1B; note that reporter neurons were adapted to 384 well format for some screens, and the same workflow was used both for WT KCC2 reporter neurons and RTT KCC2 reporter neurons). Six replicate screens were performed in WT KCC2 reporter neurons using the LINCS and SMART libraries as well as the ICCB known bioactive library (FIG. 6B).
as §1
For some screens, on the day of the luciferase assay, the cells were washed with PBS three times using a BioTek EL406 plate washer. Cell lysis buffer (Promega, E1941, 1:5 diluted with water) was added at a volume of 100 μl per well for 96-well plates and 30 μl per well for 384-well plates, and incubated at room temperature for 10 minutes to lyse the cells. A fraction of the cell lysate (30 ul for 96-well, 5 ul for 384-well) was transferred to a new white, opaque plate and Cell Titer-Glo (CTG, Promega, G7572, diluted 2:5 in water) was added and incubated for 20 minutes at room temperature. CTG measures cellular ATP levels as a surrogate for cell viability. The reporter luciferase signal was assayed in the original source plate using Bright-Glo reagent per the manufacturer's protocol (Promega, E1501, 10 ul for 96-well plates, 3 ul for 384-well plates). Assay readouts were performed on a Tecan M1000 Infinite plate reader. For data analysis, the luciferase signal was normalized to the CTG signal to control for number of live cells per well. The Luc/CTG ratio data were then normalized to the in-plate DMSO control to calculate the signal induction fold change. Screening data were processed with CellHTS2 software package to calculate B-score (94)

KCC2 expression = experiment: Western blot of KCC2 in cultured human RTT neurons; type: cell-based
Method: Protein samples were collected from cultured brain slices or cultured neurons in 12-well format with RIPA lysis buffer (in mM: 150 NaCl, 25 Tris-HCl, 1 EDTA, 1% NP-40, 1% sodium deoxycholate, 0.1% SDS, with protein kinase inhibitor and protease inhibitor, pH adjusted to 7.6). A sonication step was applied to homogenize tissue and extract protein, followed by a 10 minute centrifugation at 4° C. […] The PVDF membrane was blocked for 30 minutes with 5% milk in TBS+0.1% Tween 20 (TBST), and incubated overnight at 4° C. with primary antibodies diluted in TBST-milk at the following concentrations: KCC2 (1:2000, Millipore), NKCC1 (1:1000, Iowa Hybridoma bank), α-Tubulin (1:4000, Abcam), GAPDH (1:3000, Abcam), Actin (1:2000, Sigma Aldrich #A2066). The membrane was rinsed with TBST three times to wash off excess antibodies, and then incubated in secondary HRP antibodies in TBST-milk at 1:5000 concentration.
The PVDF membrane was then stripped using the Re-blot plus strong solution (Millipore), and re-immunoblotted for NKCC1 (˜150 kDa) to acquire KCC2/NKCC1 ratio. The area and intensity of protein signal was determined using ImageJ. The relative KCC2 and NKCC1 expression were calculated by normalizing protein signal to GAPDH or Tubulin loading control.

SMILES | B Score [1] | other results
O=C(Nc1ccc(OC(F)(F)F)cc1)c1sccc1NCc1ccnc2ccccc12 [OSI-930, 3-[(4-quinolinylmethyl)amino]-N-[4-(trifluoromethoxy)phenyl]-2-thiophenecarboxamide] | 5.55 | –
CN(C)c1ccc(C=C2C(=O)Nc3ccccc32)cc1 [SU-4312, 3-(4-Dimethylaminobenzylidenyl)-2-indolinone] | – | B Score [2]: 3.55
NC[C@H](CC(=O)O)c1ccc(Cl)cc1 [(R)-Baclofen] | 6.65 | –
O=c1c(O)c(-c2ccc(O)cc2)oc2cc(O)cc(O)c12 [Kaempferol, 3,5,7-Trihydroxy-2-(4-hydroxyphenyl)-4H-chromen-4-one] | 3.92 | –
COc1ccc(CNC(=O)Nc2ncc([N+](=O)[O-])s2)cc1 [AR-AO14418, N-(4-Methoxybenzyl)-N'-(5-nitro-1,3-thiazol-2-yl)urea] | 8.69 | –
Cc1nc2n(c(=O)c1CCN1CCC(c3noc4cc(F)ccc34)CC1)CCCC2O (stereo not drawn) [Paliperidone, 9-Hydroxyrisperidone] | – | B Score [2]: 11.03
CCOc1ccn(-c2ccc(F)cc2)c(=O)c1C(=O)Nc1ccc(Oc2ccnc(N)c2Cl)c(F)c1 [BMS 777607, N-(4-(2-amino-3-chloropyridin-4-yloxy)-3-fluorophenyl)-4-ethoxy-1-(4-fluorophenyl)-2-oxo-1,2-dihydropyridine-3-carboxamide] | 11.97 | –
O=C(O)c1cccc(-c2noc(-c3ccccc3F)n2)c1 [Ataluren, 3-[5-(2-Fluorophenyl)-1,2,4-oxadiazol-3-yl]benzoic acid] | 7.43 | –
COCc1nc2c([nH]1)c(=O)n(C)c(=O)n2CC(C)C [8-methoxymethyl-IBMX, 8-(Methoxymethyl)-1-methyl-3-(2-methylpropyl)-7H-purine-2,6-dione] | 4.8 | B Score [2]: 4.8
COC1=CC(=O)O[C@@H](/C=C/c2ccc3c(c2)OCO3)C1 [Methysticin, (2R)-2-[(E)-2-(1,3-Benzodioxol-5-yl)ethenyl]-4-methoxy-2,3-dihydropyran-6-one] | 7.17 | B Score [2]: 7.17
CC(C)(O)[C@H]1O[C@H]2CC[C@@]3(C)[C@@](O)(CC[C@H]4Cc5c([nH]c6ccccc56)[C@@]43C)C2=CC1=O [Paxilline, (2R,4bS,6aS,12bS,12cR,14aS)-5,6,6a,7,12,12b,12c,13,14,14a-Decahydro-4b-hydroxy-2-(1-hydroxy-1-methylethyl)-12b,12c-dimethyl-2H-pyrano[2″,3″:5',6']benz[1',2':6,7]indeno[1,2-b]indol-3(4bH)-one] | 4.1 | B Score [2]: 4.1
COc1ccc(C(=O)Nc2sc3c(c2C(N)=O)CCC3)cc1OC [FLT3 Inhibitor-1, 2-(3,4-dimethoxybenzamido)-5,6-dihydro-4H-cyclopenta[b]thiophene-3-carboxamide] | – | KCC2 expression (KCC2 expression; cultured human RTT neurons, Western blot): significant enhancement of KCC2 expression
O=c1c(O)c(-c2ccc(O)c(O)c2)oc2cc(O)cc(O)c12 [Quercetin-2H2O, 2-(3,4-dihydroxyphenyl)-3,5,7-trihydroxy-4H-chromen-4-one] | 7.76 | –
C[C@H](NCc1ccc(OCc2cccc(F)c2)cc1)C(N)=O [Safinamide, (2S)-2-[[4-[(3-fluorophenyl)methoxy]phenyl]methylamino] propanamide] | 4.82 | B Score [2]: 4.82
O=c1cc(-c2ccc(O)c(O)c2)oc2cc(O)cc(O)c12 [Luteolin, 2-(3,4-Dihydroxyphenyl)-5,7-dihydroxy-4-chromenone] | 11.34 | –
CC(C)[C@@H]1NC(=O)[C@H](C)OC(=O)[C@@H](C(C)C)NC(=O)[C@@H](C(C)C)OC(=O)[C@H](C(C)C)NC(=O)[C@H](C)OC(=O)[C@@H](C(C)C)NC(=O)[C@@H](C(C)C)OC(=O)[C@H](C(C)C)NC(=O)[C@H](C)OC(=O)[C@@H](C(C)C)NC(=O)[C@@H](C(C)C)OC1=O [Valinomycin, Cyclo-(L-Val-D-HyIva-D-Val-L-Lac-)3] | 4.49 | –
CC(C)CC(=O)N[C@H](C(=O)N[C@H](C(=O)N[C@@H](CC(C)C)[C@@H](O)CC(=O)N[C@@H](C)C(=O)N[C@@H](CC(C)C)[C@@H](O)CC(=O)O)C(C)C)C(C)C [Pepstatin, Isovalery-Val-Val-Sta-Ala-Sta] (Isovaleryl-VV[Sta]A[Sta]-OH) | 8.64 | –
O=C1CCc2c(ccc3ccccc23)O1 [Splitomycin, 1,2-Dihydro-3H-naphtho[2,1-b]pyran-3-one] | 9.79 | –
O=c1c(-c2ccc(O)cc2)coc2cc(O)ccc12 [Daidzein, 7-hydroxy-3-(4-hydroxyphenyl)-4H-chromen-4-one] | 4.64 | –
O=C(Nc1ccc(S(=O)(=O)C(F)(F)F)cc1)C1=CCN(c2ncccc2C(F)(F)F)CC1 [A784168] | – | effect on Piperine-induced KCC2 expression (KCC2 expression; RTT neurons, co-application with Piperine): eliminated the KCC2-inducing effect of Piperine
NC(=O)C1CCCc2c1[nH]c1ccc(Cl)cc21 (stereo not drawn) [EX-527] | – | effect on Resveratrol-induced KCC2 expression enhancement (KCC2 expression; RTT neurons, additional application to Resveratrol): blocked KCC2 expression enhancement
CCC(C)C(CC)C(N)=O (stereo not drawn) [Valnoctamide, 2-ethyl-3-methyl-pentanamide] | 14.99 | –
O=c1c(-c2ccc(O)cc2)coc2cc(O)cc(O)c12 [Genistein, 4',5,7-Trihydroxyisoflavone] | 5.11 | –
